Measured values taken from patent US7226932B2, “Self-emulsifying drug delivery system” (priority 1994, dated 2007).
In brackets after ≈: the same amount, converted by molar mass. Like-named read-outs stand apart in the source and are kept apart here.

Legend:
[1] = Solubility in water and oil; format: physicochemical
[2] = Oral administration to rats, plasma pharmacokinetics; format: in vivo; details: rat, suspension in tween 80, methylcellulose and water
Protocol: Rats: […] Three rats were administered with each dose vehicle. […] Plasma concentrations of the pharmaceutical were determined as previously described in the dog and the same pharmacokinetic parameters were determined.

[3] = Bioavailability measured in animals; format: in vivo
HIV protease = HIV protease (Human immunodeficiency virus type 1 group M subtype B, UniProt P04585); assay: IC50 and IC90 pharmaceutical plasma levels

In the case of CC(C)CN(C[C@@H](O)[C@H](Cc1ccccc1)NC(=O)[C@H](CC(N)=O)NC(=O)c1ccc2ccccc2n1)C(=O)NC(C)(C)C [Example 1, N^1-[3-[N^2-[[(1,1-dimethylethyl)amino]carbonyl]-N^2-(2-methylpropyl)amino]-2(R)-hydroxy-1(S)-(phenylmethyl)propyl]-2(S)-[N^3-(2-quinolinylcarbonyl)amino]butanediamide], the “dose to solubility ratio” value [1] is reported as > 75,000, the solubility ([1]; oil, oil or lipid, read-out: solubility in oil) is reported as < 1000 µg/mL and the solubility ([1]; water, read-out: solubility in water) is reported as ~10 µg/mL (≈ 16.5 µM). The bioavailability [2] was ~1%, the bioavailability ([3]; in vivo, normal formulation methods, read-out: bioavailability) was < 1% and the bioavailability ([3]; measured in animals, without solubilizer) was “very low”. The increase of bioavailability ([3]; utilizing a solubilizer in the dosage formulation) was 25–30 fold, the IC50 (HIV protease) was 16.5 nM and the IC90 (HIV protease) was 0.1 µg/mL (≈ 0.165 µM). It also gave a melting point of 107 to 109.8 °C.
